From paper doi:10.1101/472670v4 (biorxiv, 2019)

Columns and labels:
[1] = target: T1, PTP1B (human recombinant, kit BML-AK822) (Homo sapiens, UniProt P18031); assay: colorimetric malachite green; assay type: biochemical; conditions: read-out: % inhibition at 10 µM
T1 sequence (P18031 1-322 limits assumed): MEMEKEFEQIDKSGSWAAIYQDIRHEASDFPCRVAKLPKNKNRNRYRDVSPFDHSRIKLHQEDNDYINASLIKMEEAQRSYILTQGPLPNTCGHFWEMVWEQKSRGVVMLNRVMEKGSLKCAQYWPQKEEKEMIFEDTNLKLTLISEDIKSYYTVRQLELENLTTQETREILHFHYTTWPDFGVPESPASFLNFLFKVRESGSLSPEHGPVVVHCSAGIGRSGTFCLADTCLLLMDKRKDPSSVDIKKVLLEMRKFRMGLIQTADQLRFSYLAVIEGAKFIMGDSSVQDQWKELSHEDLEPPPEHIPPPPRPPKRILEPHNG

[2] = target: T1, PTP1B (human recombinant, kit BML-AK822); assay: biochemical; conditions: read-out: % inhibition at 10 µM
[3] = target: T1, PTP1B (human recombinant, kit BML-AK822); assay: colorimetric malachite green; assay type: biochemical
[4] = target: T1, PTP1B (human recombinant, kit BML-AK822); assay: Lineweaver-Burk with slope replot; assay type: biochemical

Row | SMILES | inhibition at 10 µM [1] | inhibition at 10 µM [2] | IC50 [3] | Ki [4]
1 | COc1ccc(C(=O)N(C2=NCCS2)c2ccccc2C(F)(F)F)cc1 [II, compound II] | 48% |  |  | 
2 | Cc1ccc(-c2csc(N(C(=O)c3ccc(Cl)cc3)c3ccc(F)cc3)n2)cc1 [compound 15] | 35.2% |  |  | 
3 | COc1ccc(-c2csc(N(C(=O)c3ccc(Cl)cc3)c3ccc(F)cc3)n2)cc1 [compound 18] |  | 56.9% | 8.8 µM | 
4 | O=C(c1ccc(Cl)cc1)N(c1ccc(F)cc1)c1nc(-c2ccccc2)cs1 [compound 21] | 37.2% |  |  | 

The next lines start with the values.

Row | inhibition at 10 µM [1] | inhibition at 10 µM [2] | IC50 [3] | Ki [4] | SMILES
5 | 33% |  |  |  | Cc1ccc(-c2csc(N(C(=O)CCc3ccccc3)c3ccc(F)cc3)n2)cc1 [compound 16]
6 |  | 60.3% |  |  | Cc1ccc(-c2csc(N(C(=O)Cc3ccccc3)c3ccc(F)cc3)n2)cc1 [compound 17]
7 |  | 74.7% |  |  | COc1ccc(-c2csc(N(C(=O)CCc3ccccc3)c3ccc(F)cc3)n2)cc1 [compound 19]
8 |  | 69% |  |  | O=C(CCc1ccccc1)N(c1ccc(F)cc1)c1nc(-c2ccccc2)cs1 [compound 22]
9 |  | 69.9% | 6.9 µM |  | COc1ccc(CCN(C(=O)CCc2ccccc2)c2nc(-c3ccc(OC)cc3)cs2)cc1 [compound 37]
10 |  | 76.6% | 5.8 µM | 8.59 µM | COc1ccc(CCN(C(=O)Cc2ccccc2)c2nc(-c3ccc(OC)cc3)cs2)cc1 [compound 38]
